Experimental data: ChEMBL document CHEMBL5233262, “Anti-inflammatory activity of naturally occuring diarylheptanoids - A review” (Bioorg Med Chem, 2021)
In brackets after ≈: the same amount, converted by molar mass. One block for each compound: values may come before it.

How the values were obtained:
J774.1 = experiment: Antiinflammatory activity in mouse J774.1 cells assessed as inhibition of LPS-induced NO production incubated for 48 hrs by Griess reagent based analysis; assay type: functional, cell-based
RAW264.7 [1] = experiment: Antiinflammatory activity in mouse RAW264.7 cells assessed as inhibition of LPS-induced NO production preincubated for 1 hrs followed by LPS stimulation and measured after 24 hrs by Griess reagent based spectrophotometrical method; assay type: functional, cell-based
RAW264.7 [2] = experiment: Antiinflammatory activity in mouse RAW264.7 cells assessed as inhibition of LPS-induced NO production preincubated for 0.5 hrs followed by LPS stimulation and measured after 24 hrs by Griess reagent based analysis; assay type: functional, cell-based
[3] = Antiinflammatory activity in mouse N11 cells assessed as inhibition of LPS-induced NO production preincubated for 1 hrs followed by LPS stimulation and measured after 24 hrs by Griess method; assay type: functional, cell-based
[4] = Antiinflammatory activity in mouse N11 cells assessed as inhibition of LPS-induced TNFalpha level preincubated for 1 hrs followed by LPS stimulation and measured after 24 hrs by ELISA; assay type: functional, cell-based
Mus musculus [5] = experiment: Antiinflammatory activity in ICR mouse model of TPA-induced ear edema assessed as inhibition of ear inflammation at 1 mg,TOP for 30 mins followed by TPA addition and measured after 6 hrs; assay type: functional; settings: time 390 min, 6.5 h
[6] = Antioxidant activity assessed as […] radical scavenging activity at 50 uM; assay type: functional
RAW264.7 [7] = experiment: Antiinflammatory activity in mouse RAW264.7 cells assessed as inhibition of LPS-induced NO production incubated for 18 hrs by Griess method; assay type: functional, cell-based; settings: RAW264.7, 18 h
Mus musculus [8] = experiment: Antiinflammatory activity in TPA-induced ear edema ICR mouse model assessed as inhibition of ear inflammation at 1 ug, TOP for 30 mins followed by TPA addition and measured after 6 hrs; assay type: functional; settings: dose 1 µg, time 390 min, 6.5 h
[9] = Antioxidant activity assessed as DPPH radical scavenging activity incubated for 30 mins by spectrophotometric analysis; assay type: functional
[10] = Antioxidant activity assessed as ABTS radical scavenging activity measured after 6 mins; assay type: functional
RAW264.7 [11] = experiment: Antiinflammatory activity in mouse RAW264.7 cells assessed as inhibition of LPS-induced NO production preincubated for 1 hrs followed by LPS stimulation and measured after 24 hrs by Griess method; assay type: functional, cell-based
RAW264.7 [12] = experiment: Antiinflammatory activity in mouse RAW264.7 cells assessed as inhibition of LPS-induced TNFalpha level preincubated for 1 hrs followed by LPS stimulation and measured after 24 hrs by ELISA; assay type: functional, cell-based
Zingiber officinale = experiment: Inhibition of prostaglandin biosynthesis in ginger; assay type: functional, organism-based
[13] = Antioxidant activity assessed as nitroblue tetrazolium superoxide radical scavenging activity incubated for 10 mins by spectrophotometric analysis; assay type: functional
RAW264.7 [14] = experiment: Antiinflammatory activity in mouse RAW264.7 cells assessed as inhibition of LPS-induced NO production preincubated for 1 hrs followed by LPS stimulation and measured after 24 hrs by Griess reagent based analysis; assay type: functional, cell-based
RAW264.7 [15] = experiment: Antiinflammatory activity in mouse RAW264.7 cells assessed as inhibition of LPS-induced NO production incubated for 20 hrs by Griess method; assay type: functional, cell-based; settings: RAW264.7, 20 h
RAW264.7 [16] = experiment: Antiinflammatory activity in mouse RAW264.7 cells assessed as inhibition of IFN-gamma and LPS-induced NO production incubated for 24 hrs by Griess assay; assay type: functional, cell-based; settings: RAW264.7, 24 h
RAW264.7 [17] = experiment: Antiinflammatory activity against mouse RAW264.7 cells assessed as inhibition of IFN-gamma and LPS-induced COX2 production preincubated for 2 hrs followed by IFN-gamma and LPS stimulation and measured after 16 hrs by spectrophotometric analysis; assay type: functional, cell-based
RAW264.7 [18] = experiment: Antiinflammatory activity in mouse RAW264.7 cells assessed as inhibition of LPS-induced NO production for 24 hrs by Griess assay; assay type: functional, cell-based; settings: RAW264.7, 24 h
[19] = Inhibition of COX in bovine seminal vesicle assessed as reduction in PGE2 production using arachidonic acid as substrate; assay type: tissue-based, Bos taurus
Rattus norvegicus = experiment: Antiinflammatory activity in rat model of carrageenan-induced paw edema assessed as reduction in paw thickness at 10 mg/kg,ip and measured after 4 hrs; assay type: functional; parameters: scale not given: the % may be the effect or the level left

Structure (SMILES): COc1cc(O)c([C@@H](/C=C/C[C@@H](O)CCc2ccc(O)cc2)c2ccc(O)cc2)c2oc(-c3ccc(O)cc3)cc(=O)c12 (stereo in doubt; 113)
IC50 (J774.1; j774.1): 83 µM

Structure (SMILES): N=C(NCCC[C@H](N)C(=O)O)N[N+](=O)[O-] [NITROARGININE]
IC50 (RAW264.7 [1]): 39.5 µM

Structure (SMILES): O=c1cc(-c2ccc(O)cc2)oc2cc(O)cc(O)c12 [APIGENIN]
IC50 [3]: 15 µM
IC50 [4]: 20 µM

Structure (SMILES): OC[C@@]1(O)CO[C@@H](OC[C@H]2O[C@@H](O[C@@H]3CCCCc4ccc(O)c(c4)Oc4ccc(cc4)CC3)[C@H](O)[C@@H](O)[C@@H]2O)[C@@H]1O
ID50 (Mus musculus [5]): 0.81 mg

Structure (SMILES): CCCOC(=O)c1cc(O)c(O)c(O)c1
Activity [6]: 97%

Structure (SMILES): COc1cc(O)c([C@H](/C=C/C[C@H](CCc2ccc(O)cc2)OO)c2ccc(O)cc2)c(O)c1C(=O)/C=C/c1ccc(O)cc1
IC50 (J774.1; Mus musculus, J774.1, 48 h): 49 µM

Structure (SMILES): Oc1ccc2cc1Oc1ccc(cc1)CCCC[C@@H](O)CC2
ID50 (Mus musculus [5]): 0.26 mg

Structure (SMILES): CO[C@@H](CCc1ccccc1)CC(=O)CCc1ccccc1
ID50 (Mus musculus [8]): 2.7 µmol

Structure (SMILES): COc1c2cc(c(OC)c1OC)-c1cc(ccc1O)CC(O)C(=O)CCCC2 (stereo not drawn)
IC50 [9]: > 250 µM
IC50 [10]: 73.7 µM
IC50 (RAW264.7 [1]): 46.9 µM

Structure (SMILES): NC1=NN(c2cccc(C(F)(F)F)c2)CC1 [BW-755C]
IC50 [19]: 32 µM

Structure (SMILES): COc1ccc(C/C=C/CCCCc2ccc(OC)c(OC)c2)cc1
IC50 (RAW264.7 [11]): 28.3 µM
IC50 [3]: 12.7 µM
IC50 (RAW264.7 [12]): 5.3 µM
IC50 [4]: 4.3 µM

Structure (SMILES): COc1c2cc(c(O[C@@H]3O[C@H](CO)[C@@H](O)[C@H](O)[C@H]3O)c1OC)CCCC[C@H](O)CCc1ccc(O)c-2c1
Activity [6]: 41%
Activity (Rattus norvegicus): 47.1%

Structure (SMILES): O=C1CCN(c2ccccc2)N1 [PHENIDONE]
IC50 [19]: 11.8 µM

Next, values leading:

IC50 (J774.1; Mus musculus, J774.1, 48 h): 51 µM
Structure (SMILES): COc1cc(O)c([C@@H]2C[C@H](CCc3ccc(O)cc3)O[C@@H](c3ccc(O)cc3)C2)c(O)c1C(=O)/C=C/c1ccc(O)cc1 [EPICALYXIN F]

IC50 (J774.1; Mus musculus, J774.1, 48 h): 39 µM
Structure (SMILES): COc1cc(O)c([C@@H](/C=C/C[C@@H](O)CCc2ccc(O)cc2)c2ccc(O)cc2)c(O)c1C(=O)[C@@H]1[C@H](/C=C/c2ccc(O)cc2)C[C@H](CCc2ccc(O)cc2)O[C@H]1c1ccc(O)cc1

IC50 (RAW264.7 [2]): 8.1 µM
Structure (SMILES): O=C(CCc1ccc(O)c(O)c1)C[C@H](CCc1ccc(O)cc1)O[C@@H]1OC[C@@H](O)[C@H](O)[C@H]1O

IC50 (RAW264.7 [7]): > 25 µM
Structure (SMILES): Oc1ccc(CCCC[C@H](O)CCc2ccc(O)cc2)cc1

IC50 (RAW264.7 [11]): 25.1 µM
IC50 [3]: 41.3 µM
IC50 (RAW264.7 [12]): 15.9 µM
IC50 [4]: 23.3 µM
Structure (SMILES): COc1ccc(C/C=C/CCCCc2ccc(O)c(O)c2)cc1

IC50 (Zingiber officinale): 4.4 µM
Structure (SMILES): COc1cc(CCC(=O)CC(=O)CCc2ccccc2)ccc1O

IC50 (RAW264.7 [2]): 10.5 µM
Structure (SMILES): O=C(CCc1ccc(O)c(O)c1)C[C@H](CCc1ccc(O)c(O)c1)O[C@H]1OC[C@H](O)[C@@H](O)[C@@H]1OC(=O)/C=C/c1ccccc1

IC50 [9]: 23.3 µM
IC50 [13]: 11.6 µM
IC50 (RAW264.7 [14]): 10.2 µM
IC50 (RAW264.7 [15]): 5.2 µM
IC50 (RAW264.7 [2]): 20 µM
IC50 (RAW264.7 [16]): 28.4 µg/mL (≈ 85.4 µM)
IC50 (RAW264.7 [17]): 45.3 µg/mL (≈ 136 µM)
Structure (SMILES): Oc1ccc(CCCC[C@@H](O)CCc2ccc(O)c(O)c2)cc1O

IC50 (RAW264.7 [2]): 15.2 µM
Structure (SMILES): CO[C@@H](CCc1ccc(O)cc1)CC(=O)CCc1ccc(O)cc1

IC50 (RAW264.7 [18]): 46.7 µM
Structure (SMILES): COc1cc(C(O)C(O)C(O)CC(O)C(O)Cc2ccc(O)cc2)ccc1O (stereo not drawn)

IC50 (RAW264.7 [2]): 63 µM
Structure (SMILES): Oc1ccc(CCCC[C@H](CCc2ccc(O)cc2)O[C@@H]2OC[C@@H](O)[C@H](O)[C@H]2O)cc1

IC50 (RAW264.7 [18]): 27.9 µM
Structure (SMILES): Oc1ccc(CC[C@@H]2C[C@@H](O)C[C@H](c3ccc(O)c(O)c3)O2)cc1

IC50 (RAW264.7 [18]): 17.3 µM
Structure (SMILES): Oc1ccc(CC[C@H]2C[C@@H](O)C[C@@H](c3ccc(O)c(O)c3)O2)cc1

IC50 (RAW264.7 [2]): 22.1 µM
Structure (SMILES): Oc1ccc(CC[C@H](O)CCCCc2ccc(O)c(O)c2)cc1
